Data reported in patent publication US9382254B2, “Compounds and pharmaceutical compositions thereof for the treatment of cystic fibrosis” (Galapagos NV, priority 2013, dated 2016).
Values joined by “and” are separate entries in the source; they are usually repeats but may differ in a detail not shown here. Equal values may be shown once.

Assays:
Assay type in all cases: cell-based
CFTR ΔF508 mutant [1] = target: T1, CFTR ΔF508 mutant (Homo sapiens, UniProt P13569, DEL508-508); experiment: YFP-halide influx assay for the CFTR-ΔF508 mutation (384 well, FDSS/μCell); details: CFBE41o- cells, CFTR-ΔF508, 1×D-PBS, fluorescence after 36 seconds
T1 construct: expressed in transfected cells; host or cells: CFBE41o- (adenoviral transduction)
T1 sequence (P13569 with tags, fused parts or gaps DEL508-508): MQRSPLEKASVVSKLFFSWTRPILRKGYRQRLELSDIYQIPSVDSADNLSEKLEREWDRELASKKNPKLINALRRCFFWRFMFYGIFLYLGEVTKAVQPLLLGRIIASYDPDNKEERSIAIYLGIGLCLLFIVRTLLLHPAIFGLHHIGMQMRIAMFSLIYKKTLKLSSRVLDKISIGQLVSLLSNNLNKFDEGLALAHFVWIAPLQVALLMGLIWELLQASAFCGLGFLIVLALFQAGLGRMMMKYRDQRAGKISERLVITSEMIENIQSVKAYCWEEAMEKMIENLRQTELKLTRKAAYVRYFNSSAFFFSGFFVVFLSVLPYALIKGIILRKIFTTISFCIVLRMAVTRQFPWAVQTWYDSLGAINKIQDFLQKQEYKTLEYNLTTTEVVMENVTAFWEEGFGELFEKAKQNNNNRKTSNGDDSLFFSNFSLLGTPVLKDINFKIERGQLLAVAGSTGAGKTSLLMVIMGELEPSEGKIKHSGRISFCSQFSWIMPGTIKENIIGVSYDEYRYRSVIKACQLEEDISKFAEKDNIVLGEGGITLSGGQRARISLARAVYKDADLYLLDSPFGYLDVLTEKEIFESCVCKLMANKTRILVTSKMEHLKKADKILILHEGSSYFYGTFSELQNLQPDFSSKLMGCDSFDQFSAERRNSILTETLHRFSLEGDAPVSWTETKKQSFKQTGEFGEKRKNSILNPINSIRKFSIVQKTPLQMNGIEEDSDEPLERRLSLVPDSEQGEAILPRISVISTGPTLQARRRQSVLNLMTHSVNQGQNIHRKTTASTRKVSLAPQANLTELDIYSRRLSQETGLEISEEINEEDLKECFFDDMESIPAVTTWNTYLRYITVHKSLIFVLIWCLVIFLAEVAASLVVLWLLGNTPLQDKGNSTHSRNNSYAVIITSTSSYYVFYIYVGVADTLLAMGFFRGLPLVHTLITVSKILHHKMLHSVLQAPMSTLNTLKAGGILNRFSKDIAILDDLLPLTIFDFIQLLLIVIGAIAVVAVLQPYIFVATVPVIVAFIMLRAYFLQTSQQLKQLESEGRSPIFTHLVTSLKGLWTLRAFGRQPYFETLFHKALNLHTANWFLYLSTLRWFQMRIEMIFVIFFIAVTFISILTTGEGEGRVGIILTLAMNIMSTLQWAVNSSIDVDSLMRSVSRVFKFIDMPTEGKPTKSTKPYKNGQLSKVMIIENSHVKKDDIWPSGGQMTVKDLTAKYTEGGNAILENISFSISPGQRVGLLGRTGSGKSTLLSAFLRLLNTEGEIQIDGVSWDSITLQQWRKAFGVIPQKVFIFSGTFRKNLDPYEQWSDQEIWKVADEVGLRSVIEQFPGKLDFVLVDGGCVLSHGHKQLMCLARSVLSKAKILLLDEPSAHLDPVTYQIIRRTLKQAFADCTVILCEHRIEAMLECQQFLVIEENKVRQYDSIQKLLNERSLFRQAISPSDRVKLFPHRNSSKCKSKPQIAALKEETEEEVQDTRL
How it was run: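 Potentiator read-out as 1−F/F0, F taken 36 s after iodide addition, EC50 fitted against compound concentration. Cells: CFBE41o- expressing ΔF508 CFTR plus halide-sensitive YFP via adenovirus, rescued by 27 °C for 24 h or 24 h modulator at 37 °C.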

CFTR ΔF508 mutant [2] = target: T1, CFTR ΔF508 mutant; experiment: YFP-halide influx assay for the CFTR-ΔF508 mutation, gluconate buffer; details: CFBE41o- cells, forskolin 10.67 μM
How it was run: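 CFBE41o- cells adenovirally transduced with CFTR ΔF508 and YFP H148Q/I152L, then held 24 h at 27 °C or treated with CFTR modulator 24 h at 37 °C. I− quenching recorded for 7 s after injection; activity as 1-F/F0, EC50 from concentration plot.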

CFTR ΔF508 mutant [3] = target: T1, CFTR ΔF508 mutant; experiment: YFP-halide influx assay for the CFTR-ΔF508 mutation, PBS buffer (96 well); details: CFBE41o- cells, forskolin 10.67 μM
How it was run: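 CFBE41o- cells were adenovirally transduced with CFTR ΔF508 and YFP H148Q/I152L, then incubated 24 h at 27 °C or with a CFTR modulator at 37 °C. I⁻-induced fluorescence quenching was recorded over 7 s after injection; response expressed as 1−F/F0, with EC50 from concentration plots.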

CFTR-G178R = target: T2, CFTR-G178R (Homo sapiens, UniProt P13569, G178R); experiment: YFP-halide influx assay for the CFTR-G178R
T2 construct: expressed in transfected cells
T2 sequence (P13569 whole entry G178R): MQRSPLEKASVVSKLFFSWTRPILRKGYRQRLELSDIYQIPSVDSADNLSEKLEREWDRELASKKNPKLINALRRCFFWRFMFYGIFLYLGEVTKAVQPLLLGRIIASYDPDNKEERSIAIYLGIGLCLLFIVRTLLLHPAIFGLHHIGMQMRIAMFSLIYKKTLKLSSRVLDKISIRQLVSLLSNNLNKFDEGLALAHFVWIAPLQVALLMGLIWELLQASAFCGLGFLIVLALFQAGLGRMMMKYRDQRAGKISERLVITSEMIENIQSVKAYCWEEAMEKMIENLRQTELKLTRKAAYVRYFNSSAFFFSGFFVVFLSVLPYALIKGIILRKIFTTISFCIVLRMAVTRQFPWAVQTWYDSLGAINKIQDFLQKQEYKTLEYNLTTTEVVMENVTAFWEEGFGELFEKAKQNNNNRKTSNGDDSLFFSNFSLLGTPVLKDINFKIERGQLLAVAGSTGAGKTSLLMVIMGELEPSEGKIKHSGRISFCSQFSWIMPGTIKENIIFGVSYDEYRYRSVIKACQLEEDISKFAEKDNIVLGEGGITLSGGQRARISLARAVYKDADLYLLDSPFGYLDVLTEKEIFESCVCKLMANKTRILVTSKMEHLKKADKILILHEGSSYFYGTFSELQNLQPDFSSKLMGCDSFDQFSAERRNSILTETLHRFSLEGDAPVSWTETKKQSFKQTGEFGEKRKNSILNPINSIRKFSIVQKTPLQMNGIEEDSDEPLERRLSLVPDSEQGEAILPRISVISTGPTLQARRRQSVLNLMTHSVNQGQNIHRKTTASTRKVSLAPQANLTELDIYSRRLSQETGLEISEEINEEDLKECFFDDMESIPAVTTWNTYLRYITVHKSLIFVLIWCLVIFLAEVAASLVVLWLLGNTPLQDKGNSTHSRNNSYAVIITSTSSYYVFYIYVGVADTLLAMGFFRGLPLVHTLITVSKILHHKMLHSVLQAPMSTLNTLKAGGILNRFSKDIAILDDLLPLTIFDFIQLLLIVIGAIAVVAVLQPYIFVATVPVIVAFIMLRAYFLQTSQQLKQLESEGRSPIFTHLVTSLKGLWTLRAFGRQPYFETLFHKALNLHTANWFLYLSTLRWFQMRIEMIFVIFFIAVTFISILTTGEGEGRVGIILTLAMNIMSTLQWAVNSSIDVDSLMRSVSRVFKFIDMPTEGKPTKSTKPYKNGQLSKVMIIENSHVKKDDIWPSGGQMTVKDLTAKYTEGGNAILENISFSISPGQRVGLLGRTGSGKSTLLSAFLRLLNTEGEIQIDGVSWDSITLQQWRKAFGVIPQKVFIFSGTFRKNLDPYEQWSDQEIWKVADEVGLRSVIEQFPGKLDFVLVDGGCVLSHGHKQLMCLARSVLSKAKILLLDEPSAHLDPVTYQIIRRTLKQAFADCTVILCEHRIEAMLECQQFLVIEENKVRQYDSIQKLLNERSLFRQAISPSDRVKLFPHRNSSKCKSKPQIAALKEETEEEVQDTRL
How it was run: (§1)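 HEK293 cells reverse-transfected with the CFTR mutant plus halide-sensitive YFP (H148Q/I152L/F47L), expressed 24 h at 37 °C. Channel activity measured as I⁻-induced fluorescence quenching over 7 s after injection, expressed as 1-F/F0; EC50 from 1-F/F0 versus compound concentration.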

CFTR-R117H = target: T3, CFTR-R117H (Homo sapiens, UniProt P13569, R117H); experiment: YFP-halide influx assay for the CFTR-R117H
T3 construct: expressed in transfected cells
T3 sequence (P13569 whole entry R117H): as the sequence (P13569 whole entry G178R) above, with R117H, R178G counted along it
How it was run: as §1

CFTR-S549N = target: T4, CFTR-S549N (Homo sapiens, UniProt P13569, S549N); experiment: YFP-halide influx assay for the CFTR-S549N
T4 construct: expressed in transfected cells
T4 sequence (P13569 whole entry S549N): as the sequence (P13569 whole entry G178R) above, with R178G, S549N counted along it
How it was run: as §1

CFTR G551D mutant = target: T5, CFTR G551D mutant (Homo sapiens, UniProt P13569, G551D); experiment: YFP-halide influx assay for the CFTR-G551D mutation; details: HEK293 cells, forskolin 10.67 μM
T5 construct: expressed in transfected cells; host or cells: HEK293 (reverse transfection with plasmid)
T5 sequence (P13569 whole entry G551D): as the sequence (P13569 whole entry G178R) above, with R178G, G551D counted along it
How it was run: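 HEK293 cells reverse-transfected with CFTR G551D and YFP H148Q/I152L/F47L halide sensor, expressed 24 h at 37 °C. Iodide-induced fluorescence quench recorded 7 s after I− injection; response = 1−F/F0, with EC50 from plot against compound concentration.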

CFTR-G1349D = target: T6, CFTR-G1349D (Homo sapiens, UniProt P13569, G1349D); experiment: YFP-halide influx assay for the CFTR-G1349D
T6 construct: expressed in transfected cells
T6 sequence (P13569 whole entry G1349D): as the sequence (P13569 whole entry G178R) above, with R178G, G1349D counted along it
How it was run: as §1

With `CN(Cc1ccccc1)S(=O)(=O)c1cc(C(N)=O)c(NC(=O)c2ccn[nH]2)s1` [Compound 73, N-(5-(N-benzyl-N-methylsulfamoyl)-3-carbamoylthiophen-2-yl)-1H-pyrazole-3-carboxamide] the EC50 (CFTR ΔF508 mutant [1]) was 15.7 nM, the EC50 (CFTR ΔF508 mutant [2]) was 25.1 nM and the EC50 (CFTR ΔF508 mutant [3]) was 16.5 nM. The EC50 (CFTR-G178R) was 44.7 nM, the EC50 (CFTR-R117H) was 168 nM and the EC50 (CFTR-S549N) was 162 nM. It also gave an EC50 (CFTR G551D mutant) of 232 nM and an EC50 (CFTR-G1349D) of 41.6 nM.

Compound `NC(=O)c1cc(S(=O)(=O)c2ccccc2)sc1NC(=O)c1cc[nH]n1` [Compound 83, N-(3-carbamoyl-5-(phenylsulfonyl)thiophen-2-yl)-1H-pyrazole-3-carboxamide] has an EC50 (CFTR ΔF508 mutant [1]) of 12.1 nM, an EC50 (CFTR ΔF508 mutant [2]) of 42.8 nM and an EC50 (CFTR ΔF508 mutant [3]) of 30.8 nM. For the same compound, the EC50 (CFTR-G178R) was 71.3 nM, the EC50 (CFTR-R117H) was 222 nM and the EC50 (CFTR-S549N) was 353 nM. It also gave an EC50 (CFTR G551D mutant) of 339 nM and an EC50 (CFTR-G1349D) of 152 nM.

With `NC(=O)c1cc(S(=O)(=O)c2ccc(F)cc2)sc1NC(=O)C1(CO)CC1` [Compound 254, 5-(4-fluorophenylsulfonyl)-2-(1-(hydroxymethyl)cyclopropanecarboxamido) thiophene-3-carboxamide] the EC50 (CFTR ΔF508 mutant [1]) was 27.8 nM, the EC50 (CFTR ΔF508 mutant [3]) was 30.3 nM and 137 nM and the EC50 (CFTR-G178R) was 58 nM. For the same compound, the EC50 (CFTR-R117H) was 127 nM, the EC50 (CFTR-S549N) was 243 nM and the EC50 (CFTR G551D mutant) was 878 nM and 1410 nM. The EC50 (CFTR-G1349D) was 141 nM.

With `CC(C)(O)C(=O)Nc1sc(S(=O)(=O)c2ccc(OC(F)(F)F)cc2)cc1C(N)=O` [Compound 270, 2-(2-hydroxy-2-methylpropanamido)-5-(4-(trifluoromethoxy)phenylsulfonyl) thiophene-3-carboxamide] the EC50 (CFTR ΔF508 mutant [1]) was 18.3 nM, the EC50 (CFTR ΔF508 mutant [3]) was 19.7 nM and the EC50 (CFTR-G178R) was 291 nM. For the same compound, the EC50 (CFTR-R117H) was 181 nM, the EC50 (CFTR-S549N) was 415 nM and the EC50 (CFTR G551D mutant) was 478 nM. The EC50 (CFTR-G1349D) was 211 nM.

`CC(C)(O)C(=O)Nc1sc(S(=O)(=O)c2ccccc2OC(F)(F)F)cc1C(N)=O` [Compound 271, 2-(2-hydroxy-2-methylpropanamido)-5-(2-(trifluoromethoxy)phenylsulfonyl) thiophene-3-carboxamide] gave an EC50 (CFTR ΔF508 mutant [1]) of 7.5 nM, an EC50 (CFTR ΔF508 mutant [3]) of 8.1 nM and an EC50 (CFTR-G178R) of 23.9 nM. For the same compound, the EC50 (CFTR-R117H) was 40 nM, the EC50 (CFTR-S549N) was 60.9 nM and the EC50 (CFTR G551D mutant) was 178 nM. It also gave an EC50 (CFTR-G1349D) of 37.5 nM.

`CC(C)(O)C(=O)Nc1sc(S(=O)(=O)c2ccc(F)cc2Cl)cc1C(N)=O` [Compound 286, 5-(2-chloro-4-fluorophenylsulfonyl)-2-(2-hydroxy-2-methylpropanamido) thiophene-3-carboxamide] gave an EC50 (CFTR ΔF508 mutant [1]) of 26.5 nM, an EC50 (CFTR ΔF508 mutant [3]) of 46.2 nM and an EC50 (CFTR-G178R) of 165 nM. For the same compound, the EC50 (CFTR-R117H) was 160 nM, the EC50 (CFTR-S549N) was 1150 nM and the EC50 (CFTR G551D mutant) was 857 nM. It also gave an EC50 (CFTR-G1349D) of 304 nM.

Work on `CC(C)(O)C(=O)Nc1sc(S(=O)(=O)c2ccccc2Cl)cc1C(N)=O` [Compound 290, 5-(2-chlorophenylsulfonyl)-2-(2-hydroxy-2-methylpropanamido) thiophene-3-carboxamide] yielded an EC50 (CFTR ΔF508 mutant [1]) of 27.6 nM, an EC50 (CFTR ΔF508 mutant [3]) of 34.3 nM and an EC50 (CFTR-G178R) of 207 nM. It also gave an EC50 (CFTR-R117H) of 166 nM, an EC50 (CFTR-S549N) of 871 nM and an EC50 (CFTR G551D mutant) of 880 nM. The EC50 (CFTR-G1349D) was 258 nM.

For `CC(C)(O)C(=O)Nc1sc(S(=O)(=O)c2c(Cl)cccc2Cl)cc1C(N)=O` [Compound 298, 5-(2,6-Dichloro-benzenesulfonyl)-2-(2-hydroxy-2-methyl-propionylamino)-thiophene-3-carboxylic acid amide], the EC50 (CFTR ΔF508 mutant [1]) was 5.5 nM, the EC50 (CFTR ΔF508 mutant [3]) was 6.2 nM and the EC50 (CFTR-G178R) was 104 nM. The EC50 (CFTR-R117H) was 97.2 nM, the EC50 (CFTR-S549N) was 164 nM and the EC50 (CFTR G551D mutant) was 207 nM. For the same compound, the EC50 (CFTR-G1349D) was 69.5 nM.

`CC(C)(O)C(=O)Nc1sc(S(=O)(=O)c2ccsc2C(F)(F)F)cc1C(N)=O` [Compound 425, 2-[(2-hydroxy-2-methyl-propanoyl)amino]-5-[[2-(trifluoromethyl)-3-thienyl]sulfonyl] thiophene-3-carboxamide] was tested, and the EC50 (CFTR ΔF508 mutant [1]) was 6.9 nM, the EC50 (CFTR-G178R) was 1270 nM and the EC50 (CFTR-R117H) was 144 nM. For the same compound, the EC50 (CFTR-S549N) was 715 nM, the EC50 (CFTR G551D mutant) was 762 nM and the EC50 (CFTR-G1349D) was 364 nM.

Work on `CC(C)(O)C(=O)Nc1sc(S(=O)(=O)c2nc(C(C)(C)C)ccc2C(F)(F)F)cc1C(N)=O` [Compound 426, 5-[[6-tert-butyl-3-(trifluoromethyl)-2-pyridyl]sulfonyl]-2-[(2-hydroxy-2-methyl-propanoyl)amino] thiophene-3-carboxamide] yielded an EC50 (CFTR ΔF508 mutant [1]) of 2.58 nM, an EC50 (CFTR-G178R) of 9.85 nM and an EC50 (CFTR-R117H) of 83.1 nM. It also gave an EC50 (CFTR-S549N) of 26.2 nM, an EC50 (CFTR G551D mutant) of 61.3 nM and an EC50 (CFTR-G1349D) of 6.06 nM.

With `CC(C)(O)C(=O)Nc1sc(S(=O)(=O)c2cccc(C(F)(F)F)n2)cc1C(N)=O` [Compound 427, 2-[(2-hydroxy-2-methyl-propanoyl)amino]-5-[[6-(trifluoromethyl)-2-pyridyl]sulfonyl] thiophene-3-carboxamide] the EC50 (CFTR ΔF508 mutant [1]) was 42 nM, the EC50 (CFTR-G178R) was 670 nM and the EC50 (CFTR-R117H) was 1350 nM. It also gave an EC50 (CFTR-S549N) of 1020 nM, an EC50 (CFTR G551D mutant) of 2230 nM and an EC50 (CFTR-G1349D) of 438 nM.

Work on `CC(C)(O)C(=O)Nc1sc(S(=O)(=O)c2cc(Cl)cc(C(F)(F)F)c2)cc1C(N)=O` [Compound 429, 5-[3-chloro-5-(trifluoromethyl)phenyl]sulfonyl-2-[(2-hydroxy-2-methyl-propanoyl)amino] thiophene-3-carboxamide] yielded an EC50 (CFTR ΔF508 mutant [1]) of 17.5 nM, an EC50 (CFTR-G178R) of 142 nM and an EC50 (CFTR-R117H) of 208 nM. The EC50 (CFTR-S549N) was 507 nM, the EC50 (CFTR G551D mutant) was 936 nM and the EC50 (CFTR-G1349D) was 229 nM.

In the case of `Cc1cc(C(F)(F)F)cc(S(=O)(=O)c2cc(C(N)=O)c(NC(=O)C(C)(C)O)s2)c1` [Compound 430, 2-[(2-hydroxy-2-methyl-propanoyl)amino]-5-[3-methyl-5-(trifluoromethyl)phenyl] sulfonyl-thiophene-3-carboxamide], the EC50 (CFTR ΔF508 mutant [1]) is reported as 10.7 nM, the EC50 (CFTR-G178R) is reported as 283 nM and the EC50 (CFTR-R117H) is reported as 321 nM. For the same compound, the EC50 (CFTR-S549N) was 702 nM, the EC50 (CFTR G551D mutant) was 1500 nM and the EC50 (CFTR-G1349D) was 3330 nM.

Work on `CC(C)(O)C(=O)Nc1sc(S(=O)(=O)c2cc(Cl)ncc2C#N)cc1C(N)=O` [Compound 432, 5-[(2-chloro-5-cyano-4-pyridyl)sulfonyl]-2-[(2-hydroxy-2-methyl-propanoyl)amino] thiophene-3-carboxamide] yielded an EC50 (CFTR ΔF508 mutant [1]) of 47.9 nM, an EC50 (CFTR-G178R) of 1110 nM and an EC50 (CFTR-R117H) of 359 nM. The EC50 (CFTR-S549N) was 1480 nM, the EC50 (CFTR G551D mutant) was 5550 nM and the EC50 (CFTR-G1349D) was 3330 nM.

Compound `CC(C)(O)C(=O)Nc1sc(S(=O)(=O)c2ccc(C(C)(C)C)cn2)cc1C(N)=O` [Compound 433, 5-[(5-tert-butyl-2-pyridyl)sulfonyl]-2-[(2-hdyroxy-2-methyl-propanoyl)amino] thiophene-3-carboxamide] has an EC50 (CFTR ΔF508 mutant [1]) of 48.8 nM, an EC50 (CFTR-G178R) of 217 nM and an EC50 (CFTR-R117H) of 676 nM. For the same compound, the EC50 (CFTR-S549N) was 405 nM, the EC50 (CFTR G551D mutant) was 1300 nM and the EC50 (CFTR-G1349D) was 3330 nM.

For `NC(=O)c1cc(S(=O)(=O)c2ccc(OC(F)(F)F)cc2F)sc1NC(=O)C1(CO)CC1` [Compound 435, 5-[2-fluoro-4-(trifluoromethoxy)phenyl] sulfonyl-2-[[1-(hydroxymethyl)cyclopropanecarbonyl]amino] thiophene-3-carboxamide], the EC50 (CFTR ΔF508 mutant [1]) was 16.5 nM, the EC50 (CFTR-G178R) was 33.8 nM and the EC50 (CFTR-R117H) was 173 nM. The EC50 (CFTR-S549N) was 242 nM, the EC50 (CFTR G551D mutant) was 1920 nM and the EC50 (CFTR-G1349D) was 117 nM.
